Source: PMC4298801, “Structure-Guided Design Affirms Inhibitors of Hepatitis C Virus p7 as a Viable Class of Antivirals Targeting Virion Release” (Hepatology (Baltimore, Md.), 2013)
Read-outs that look alike come from different tables or passages of the source.

How the values were obtained:
[1] = system: J4/JFH-1 (GT1b/2a HCV); assay: Inhibition of infectious virus release from Huh7 cells transfected with J4/JFH-1 RNA (focus forming assay); format: cell-based, hepatitis C virus
Method: (§1) Figure 4 Selection of novel, structurally diverse p7 inhibitors. In silico screening using p7 channel models as a template derived a range of Lipinski-compliant potential inhibitors of the p7 channel complex and the top 30 were selected for testing as proof-of-principle. (A) Liposome dye release assay showing endpoint values compounds with activity against wild-type p7 at 250 nM that were subsequently selected for cell culture studies. Results are the average of two separate experiments with each condition in duplicate and are expressed as a percentage of the untreated protein value following baseline subtraction (liposomes alone). […] (B) Inhibition of infectious virus release from Huh7 cells transfected with J4/JFH-1 RNA using novel compounds (400 nM). Selected compounds show minimal effect on intracellular infectivity, replicon replication and have no toxic effects (see Supporting Fig. 5 and Table 2). […] (C) Structures of selected initial hit compounds. (D) Predicted docking poses of rimantadine novel compounds at the allosteric binding site (calculated in Glide, Schrodinger). Key interacting residues are highlighted.
Figure 6 Effects of novel inhibitors against multiple HCV genotypes. […] Results are representative of two independent experiments and are the average of triplicate wells. Error bars represent standard deviations. […]

[2] = system: J4/JFH-1(L20F); details: subcytotoxic concentrations; cited from earlier work
[3] = system: Leu20Phe J4/JFH-1; assay: HCV spread following infection at low M.O.I., NS5A foci counted; format: cell-based, hepatitis C virus; details: low multiplicity infection
Text: Figure 5 Specificity of novel p7 inhibitors. Screening lead hits LDS19 and 21 were examined for specificity against wild-type and rimantadine resistant HCV. (A) Titration of LDS 19 and 21 against Huh7 cells transfected with both wild-type (diamonds) and Leu20Phe (squares) J4/JFH-1 RNA, showing effects on released infectivity. Graph plots the average released titers from duplicate wells from at least two separate experiments, normalized to the 100% untreated value. Error bars represent normalized percent error of the mean between experiments (*P < 0.05). (B) Effects of p7 inhibitors on HCV spread following infection at low M.O.I (0.0001 FFU/cell). Huh7 cells were infected in triplicate overnight with wild-type (black) and Leu20Phe (white) J4/JFH-1 and then media replaced after extensive washing with that containing inhibitors. Fluorescent NS5A foci were counted at 72 hours postinfection. […] Error bars represent normalized percent error of the mean (*P < 0.05, **P < 0.01). […] Results are the average of two separate experiments with duplicate wells and error bars are normalized percent error of the mean between experiments.

[4] = biological target: T1, genotype 1b p7 (Hepatitis C virus genotype 1b, UniProt O92972); assay: Liposome carboxyfluorescein dye release assay for p7 channel activity; format: biochemical; details: genotype 1b p7 in vitro, prototype control, read-out: median inhibitory concentration [IC50]
T1 construct: selected for testing against genotype 1b p7 in vitro; made in house; host or cells: Escherichia coli BL21(DE3)
T1 sequence (O92972 747-809): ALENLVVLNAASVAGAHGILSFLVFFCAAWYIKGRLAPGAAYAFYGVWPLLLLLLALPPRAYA
Method: Liposome carboxyfluorescein release assays were conducted as described previously.[13],[15],[28]
as §1

For `CCCCCCCCCN1C[C@H](O)[C@@H](O)[C@H](O)[C@H]1CO` [NN-DNJ], which IC50 ([1]; J4/JFH-1 RNA transfected Huh7, prototype shown for comparison, read-out: ∼IC50, infectious virus release) is on record?
Its IC50 is roughly 20 µM.

With `CC(N)C12CC3CC(CC(C3)C1)C2` (centres unmarked) [rimantadine] as the compound, how does the IC50 ([1]; Hepatitis C virus, GT1B, Huh-7, read-out: ∼IC50, infectious virus release) read?
The IC50 was roughly 40 µM.

And the “effect on Leu20Phe infectious virion production” value [2]?
The value was “ineffective”.

What about the “sensitivity of Leu20Phe HCV spread to compound” value [3] of the same compound?
Its value is “insensitive”.

And the IC50 [4]?
The IC50 was roughly 40 µM.
